Laboratory results reported in paper PMC7265341, “Quantifying CDK inhibitor selectivity in live cells” (Nature Communications, 2020).
Like-named read-outs stand apart in the source and are kept apart here.

Experiments:
CDK16/Cyclin Y = CDK16/Cyclin Y (Homo sapiens, UniProt Q00536); assay: NanoBRET live-cell target engagement, CDK16-NanoLuc/Cyclin Y in HEK-293; format: binding; conditions: for inhibition at 10 µM: read-out: CDK16/Y Inhibition at 10µM (%); for IC50: read-out: CDK16/Y IC50
CDK4/Cyclin D1 = CDK4/Cyclin D1 (Homo sapiens, UniProt P11802); assay: NanoBRET live-cell target engagement, NanoLuc-CDK4/Cyclin D1 in HEK-293; format: binding; conditions: 10µM, read-out: CDK4/D1 Inhibition at 10µM (%)
CDK11A/Cyclin L2 = target: T1, CDK11A/Cyclin L2 (Homo sapiens, UniProt Q9UQ88); assay: NanoBRET live-cell target engagement, CDK11A-NanoLuc/Cyclin L2 in HEK-293; format: binding; conditions: 10µM, read-out: CDK11a/L2 Inhibition at 10µM (%)
T1 sequence (Q9UQ88 1-783): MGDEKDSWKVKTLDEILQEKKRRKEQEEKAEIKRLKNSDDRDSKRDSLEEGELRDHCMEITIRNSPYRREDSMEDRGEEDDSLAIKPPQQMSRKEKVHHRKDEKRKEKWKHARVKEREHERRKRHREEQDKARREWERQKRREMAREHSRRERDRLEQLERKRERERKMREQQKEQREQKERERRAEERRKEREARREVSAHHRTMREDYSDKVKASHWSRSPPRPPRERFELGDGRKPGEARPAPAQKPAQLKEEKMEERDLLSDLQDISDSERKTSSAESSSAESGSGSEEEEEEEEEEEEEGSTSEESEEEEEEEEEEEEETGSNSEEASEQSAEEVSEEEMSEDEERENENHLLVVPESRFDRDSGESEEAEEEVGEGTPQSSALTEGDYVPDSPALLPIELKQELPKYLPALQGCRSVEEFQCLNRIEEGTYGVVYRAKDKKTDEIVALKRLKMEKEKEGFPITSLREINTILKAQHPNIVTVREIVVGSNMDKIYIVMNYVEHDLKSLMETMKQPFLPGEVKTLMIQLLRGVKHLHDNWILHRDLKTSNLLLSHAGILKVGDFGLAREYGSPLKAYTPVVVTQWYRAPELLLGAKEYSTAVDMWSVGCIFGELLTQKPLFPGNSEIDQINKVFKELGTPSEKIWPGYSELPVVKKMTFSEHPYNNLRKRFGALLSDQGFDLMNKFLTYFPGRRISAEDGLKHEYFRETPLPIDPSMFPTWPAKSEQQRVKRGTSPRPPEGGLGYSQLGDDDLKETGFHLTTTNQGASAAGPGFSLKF

CDK7 = CDK7 (Homo sapiens, UniProt P50613); assay: NanoBRET live-cell target engagement, NanoLuc-CDK7 in HEK-293; format: binding; conditions: 10µM, read-out: CDK7 Inhibition at 10µM (%)
CDK6/Cyclin D1 = CDK6/Cyclin D1 (Homo sapiens, UniProt Q00534); assay: NanoBRET live-cell target engagement, NanoLuc-CDK6/Cyclin D1 in HEK-293; format: binding; conditions: 10µM, read-out: CDK6/D1 Inhibition at 10µM (%)
CDK18/Cyclin Y = CDK18/Cyclin Y (Homo sapiens, UniProt Q07002); assay: NanoBRET live-cell target engagement, CDK18-NanoLuc/Cyclin Y in HEK-293; format: binding; conditions: 10µM, read-out: CDK18/Y Inhibition at 10µM (%)
CDK2/Cyclin E1 = CDK2/Cyclin E1 (Homo sapiens, UniProt P24941); assay: NanoBRET live-cell target engagement, CDK2-NanoLuc/Cyclin E1 in HEK-293; format: binding; conditions: 10µM, read-out: CDK2/E1 Inhibition at 10µM (%)
CDK9/Cyclin K = CDK9/Cyclin K (Homo sapiens, UniProt P50750); assay: NanoBRET live-cell target engagement, NanoLuc-CDK9/Cyclin K in HEK-293; format: binding; conditions: 10µM, read-out: CDK9/K Inhibition at 10µM (%)
CDK1/Cyclin E1 = CDK1/Cyclin E1 (Homo sapiens, UniProt P06493); assay: NanoBRET live-cell target engagement, CDK1-NanoLuc/Cyclin E1 in HEK-293; format: binding; conditions: 10µM, read-out: CDK1/E1 Inhibition at 10µM (%)
CDK13/Cyclin K = CDK13/Cyclin K (Homo sapiens, UniProt Q14004); assay: NanoBRET live-cell target engagement, CDK13-NanoLuc/Cyclin K in HEK-293; format: binding; conditions: 10µM, read-out: CDK13/K Inhibition at 10µM (%)
CDK3/Cyclin E1 = CDK3/Cyclin E1 (Homo sapiens, UniProt Q00526); assay: NanoBRET live-cell target engagement, CDK3-NanoLuc/Cyclin E1 in HEK-293; format: binding; conditions: 10µM, read-out: CDK3/E1 Inhibition at 10µM (%)
CDK12/Cyclin K = CDK12/Cyclin K (Homo sapiens, UniProt Q9NYV4); assay: NanoBRET live-cell target engagement, CDK12-NanoLuc/Cyclin K in HEK-293; format: binding; conditions: 10µM, read-out: CDK12/K Inhibition at 10µM (%)
CDK19/Cyclin C = CDK19/Cyclin C (Homo sapiens, UniProt Q9BWU1); assay: NanoBRET live-cell target engagement, NanoLuc-CDK19/Cyclin C in HEK-293; conditions: read-out: CDK19/C Inhibition at 10µM (%), 10µM
CDK17/Cyclin Y = CDK17/Cyclin Y (Homo sapiens, UniProt Q00537); assay: NanoBRET live-cell target engagement, CDK17-NanoLuc/Cyclin Y in HEK-293; format: binding; conditions: for inhibition at 10 µM: read-out: CDK17/Y Inhibition at 10µM (%); for IC50: read-out: CDK17/Y IC50
CDK8/Cyclin C = CDK8/Cyclin C (Homo sapiens, UniProt P49336); assay: NanoBRET live-cell target engagement, NanoLuc-CDK8/Cyclin C in HEK-293; format: binding; conditions: 10µM, read-out: CDK8/C Inhibition at 10µM (%)
CDK11B/Cyclin L2 = CDK11B/Cyclin L2 (Homo sapiens, UniProt P21127); assay: NanoBRET live-cell target engagement, CDK11B-NanoLuc/Cyclin L2 in HEK-293; format: binding; conditions: 10µM, read-out: CDK11b/L2 Inhibition at 10µM (%)
CDK20/Cyclin H = CDK20/Cyclin H (Homo sapiens, UniProt Q8IZL9); assay: NanoBRET live-cell target engagement, NanoLuc-CDK20/Cyclin H in HEK-293; format: binding; conditions: 10µM, read-out: CDK20/H Inhibition at 10µM (%)
CDK5/CDK5R1 = CDK5/CDK5R1 (Homo sapiens, UniProt Q00535); assay: NanoBRET live-cell target engagement, CDK5-NanoLuc/CDK5R1 in HEK-293; format: binding; conditions: 10µM, read-out: CDK5/CDK5R1 Inhibition at 10µM (%)
CDK15/Cyclin Y = CDK15/Cyclin Y (Homo sapiens, UniProt Q96Q40); assay: NanoBRET live-cell target engagement, NanoLuc-CDK15/Cyclin Y in HEK-293; format: binding; conditions: 10µM, read-out: CDK15/Y Inhibition at 10µM (%)

Sequence of CDK1/Cyclin E1 (P06493 whole entry): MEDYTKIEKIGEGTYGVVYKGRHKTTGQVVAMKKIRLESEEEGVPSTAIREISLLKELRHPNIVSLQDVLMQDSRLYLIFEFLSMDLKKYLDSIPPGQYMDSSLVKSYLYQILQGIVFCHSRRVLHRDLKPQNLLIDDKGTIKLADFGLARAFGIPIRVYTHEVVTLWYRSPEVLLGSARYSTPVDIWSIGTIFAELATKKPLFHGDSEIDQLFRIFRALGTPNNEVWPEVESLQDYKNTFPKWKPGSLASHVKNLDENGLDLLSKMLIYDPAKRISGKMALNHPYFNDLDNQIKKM
Sequence of CDK1/Cyclin E1 (P24864 whole entry partner): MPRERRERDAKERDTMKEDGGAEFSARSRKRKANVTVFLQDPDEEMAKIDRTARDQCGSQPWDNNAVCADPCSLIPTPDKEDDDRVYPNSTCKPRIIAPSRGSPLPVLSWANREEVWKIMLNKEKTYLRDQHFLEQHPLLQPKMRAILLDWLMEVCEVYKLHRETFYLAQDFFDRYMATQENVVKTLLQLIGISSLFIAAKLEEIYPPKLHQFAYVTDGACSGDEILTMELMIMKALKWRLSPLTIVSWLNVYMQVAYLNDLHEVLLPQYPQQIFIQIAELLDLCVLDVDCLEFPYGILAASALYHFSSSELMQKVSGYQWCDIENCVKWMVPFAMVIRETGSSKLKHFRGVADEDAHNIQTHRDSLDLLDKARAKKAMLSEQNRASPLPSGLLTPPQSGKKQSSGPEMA
Sequence of CDK11B/Cyclin L2 (P21127 1-782 isoform P21127-2): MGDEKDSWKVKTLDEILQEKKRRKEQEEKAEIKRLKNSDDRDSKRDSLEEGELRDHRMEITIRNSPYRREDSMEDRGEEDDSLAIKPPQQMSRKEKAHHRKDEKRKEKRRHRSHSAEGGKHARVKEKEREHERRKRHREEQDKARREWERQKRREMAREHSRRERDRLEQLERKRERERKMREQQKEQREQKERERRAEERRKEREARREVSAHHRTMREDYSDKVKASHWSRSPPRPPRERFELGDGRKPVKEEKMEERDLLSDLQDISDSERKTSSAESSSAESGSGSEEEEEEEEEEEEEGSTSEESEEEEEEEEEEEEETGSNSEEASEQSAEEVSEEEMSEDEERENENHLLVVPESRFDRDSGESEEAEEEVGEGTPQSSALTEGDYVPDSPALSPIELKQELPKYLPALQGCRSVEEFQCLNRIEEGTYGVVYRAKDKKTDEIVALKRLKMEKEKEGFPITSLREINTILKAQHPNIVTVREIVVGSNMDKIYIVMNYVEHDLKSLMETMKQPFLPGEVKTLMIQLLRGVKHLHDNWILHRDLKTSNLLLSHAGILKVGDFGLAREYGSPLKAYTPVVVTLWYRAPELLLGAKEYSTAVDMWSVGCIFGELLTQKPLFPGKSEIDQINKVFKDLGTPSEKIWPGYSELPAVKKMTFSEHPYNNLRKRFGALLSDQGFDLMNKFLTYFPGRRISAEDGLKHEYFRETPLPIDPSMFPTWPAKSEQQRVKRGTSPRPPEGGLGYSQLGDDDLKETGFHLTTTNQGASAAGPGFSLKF
Sequence of CDK18/Cyclin Y (Q07002 whole entry): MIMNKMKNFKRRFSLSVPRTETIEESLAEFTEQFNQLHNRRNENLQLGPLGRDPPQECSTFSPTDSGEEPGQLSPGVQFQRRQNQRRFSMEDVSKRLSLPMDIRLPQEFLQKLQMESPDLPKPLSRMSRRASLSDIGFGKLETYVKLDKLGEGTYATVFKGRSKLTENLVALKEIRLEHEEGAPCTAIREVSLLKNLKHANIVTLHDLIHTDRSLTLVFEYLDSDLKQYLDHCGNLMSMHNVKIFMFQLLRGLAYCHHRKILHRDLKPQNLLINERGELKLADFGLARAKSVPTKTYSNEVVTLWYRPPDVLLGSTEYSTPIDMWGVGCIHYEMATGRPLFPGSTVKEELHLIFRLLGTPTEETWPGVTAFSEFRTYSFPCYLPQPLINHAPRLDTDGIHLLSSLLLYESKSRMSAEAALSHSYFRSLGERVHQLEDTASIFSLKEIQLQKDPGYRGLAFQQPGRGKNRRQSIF
Sequence of CDK18/Cyclin Y (Q8ND76 whole entry partner): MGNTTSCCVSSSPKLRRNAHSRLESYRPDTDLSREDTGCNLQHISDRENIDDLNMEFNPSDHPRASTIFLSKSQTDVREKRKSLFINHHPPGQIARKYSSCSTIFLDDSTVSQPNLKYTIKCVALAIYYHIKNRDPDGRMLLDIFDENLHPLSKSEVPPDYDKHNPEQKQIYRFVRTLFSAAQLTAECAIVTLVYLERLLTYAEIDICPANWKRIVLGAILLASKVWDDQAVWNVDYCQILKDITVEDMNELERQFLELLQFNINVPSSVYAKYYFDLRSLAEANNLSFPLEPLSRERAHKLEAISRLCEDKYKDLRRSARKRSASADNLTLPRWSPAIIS
Sequence of CDK5/CDK5R1 (Q00535 whole entry): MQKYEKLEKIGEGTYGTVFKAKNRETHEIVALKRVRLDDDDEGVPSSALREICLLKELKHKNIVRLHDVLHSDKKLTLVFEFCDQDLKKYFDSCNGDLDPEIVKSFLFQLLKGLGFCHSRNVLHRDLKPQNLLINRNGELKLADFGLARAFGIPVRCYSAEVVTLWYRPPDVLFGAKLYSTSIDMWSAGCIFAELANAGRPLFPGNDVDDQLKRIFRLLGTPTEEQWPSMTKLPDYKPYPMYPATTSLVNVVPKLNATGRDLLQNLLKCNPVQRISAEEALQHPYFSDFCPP
Sequence of CDK5/CDK5R1 (Q15078 whole entry partner): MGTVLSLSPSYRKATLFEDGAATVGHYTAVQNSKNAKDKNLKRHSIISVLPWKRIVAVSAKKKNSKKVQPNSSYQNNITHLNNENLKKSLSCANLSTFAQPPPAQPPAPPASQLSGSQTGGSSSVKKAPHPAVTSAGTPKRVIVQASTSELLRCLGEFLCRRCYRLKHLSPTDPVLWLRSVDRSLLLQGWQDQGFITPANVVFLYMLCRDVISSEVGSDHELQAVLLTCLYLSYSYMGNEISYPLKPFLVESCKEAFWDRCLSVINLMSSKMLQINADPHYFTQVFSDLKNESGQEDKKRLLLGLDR
Sequence of CDK17/Cyclin Y (Q00537 whole entry): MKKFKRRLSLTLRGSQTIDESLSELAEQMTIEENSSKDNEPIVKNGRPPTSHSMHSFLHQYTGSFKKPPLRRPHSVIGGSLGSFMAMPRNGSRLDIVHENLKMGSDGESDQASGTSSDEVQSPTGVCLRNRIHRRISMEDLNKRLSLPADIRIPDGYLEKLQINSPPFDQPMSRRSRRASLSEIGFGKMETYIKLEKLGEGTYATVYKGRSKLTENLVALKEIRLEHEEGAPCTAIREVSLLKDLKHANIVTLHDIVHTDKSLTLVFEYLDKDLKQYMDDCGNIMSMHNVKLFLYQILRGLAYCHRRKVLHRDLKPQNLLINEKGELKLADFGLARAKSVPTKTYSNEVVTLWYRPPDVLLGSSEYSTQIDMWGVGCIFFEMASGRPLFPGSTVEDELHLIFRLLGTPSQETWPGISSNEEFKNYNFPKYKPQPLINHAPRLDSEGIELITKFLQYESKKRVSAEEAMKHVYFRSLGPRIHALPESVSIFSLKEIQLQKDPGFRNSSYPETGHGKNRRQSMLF
Sequence of CDK17/Cyclin Y (Q8ND76 whole entry partner): as the sequence (Q8ND76 whole entry partner) above
Sequence of CDK8/Cyclin C (P49336 whole entry): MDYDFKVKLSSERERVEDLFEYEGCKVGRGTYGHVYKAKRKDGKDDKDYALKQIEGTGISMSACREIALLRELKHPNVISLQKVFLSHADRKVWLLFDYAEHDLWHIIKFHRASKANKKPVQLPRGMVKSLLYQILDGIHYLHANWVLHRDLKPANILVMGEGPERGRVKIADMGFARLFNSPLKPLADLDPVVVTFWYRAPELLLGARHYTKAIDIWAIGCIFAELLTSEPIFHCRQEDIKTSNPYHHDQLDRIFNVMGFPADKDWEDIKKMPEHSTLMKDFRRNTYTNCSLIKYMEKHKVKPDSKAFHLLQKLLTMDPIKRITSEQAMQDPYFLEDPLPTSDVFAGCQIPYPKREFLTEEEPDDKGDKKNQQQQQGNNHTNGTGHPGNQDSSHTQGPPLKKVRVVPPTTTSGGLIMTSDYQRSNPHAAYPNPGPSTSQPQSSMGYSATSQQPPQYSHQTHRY
Sequence of CDK8/Cyclin C (P24863 whole entry partner): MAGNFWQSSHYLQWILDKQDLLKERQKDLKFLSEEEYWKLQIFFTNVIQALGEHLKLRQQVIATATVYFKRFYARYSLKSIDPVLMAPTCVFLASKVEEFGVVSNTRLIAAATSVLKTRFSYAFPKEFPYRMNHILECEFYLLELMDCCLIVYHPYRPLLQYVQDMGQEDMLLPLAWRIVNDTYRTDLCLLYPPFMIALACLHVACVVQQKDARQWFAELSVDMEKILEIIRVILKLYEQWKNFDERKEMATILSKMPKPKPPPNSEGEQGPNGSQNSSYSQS
Sequence of CDK4/Cyclin D1 (P11802 whole entry): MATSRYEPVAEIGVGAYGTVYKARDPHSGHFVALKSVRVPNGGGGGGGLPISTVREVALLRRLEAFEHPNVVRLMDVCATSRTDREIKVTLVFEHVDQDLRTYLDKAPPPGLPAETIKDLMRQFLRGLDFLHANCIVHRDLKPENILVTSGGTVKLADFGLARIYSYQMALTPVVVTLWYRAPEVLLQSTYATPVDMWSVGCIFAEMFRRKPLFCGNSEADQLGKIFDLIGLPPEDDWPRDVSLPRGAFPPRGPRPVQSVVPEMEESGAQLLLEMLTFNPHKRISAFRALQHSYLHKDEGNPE
Sequence of CDK4/Cyclin D1 (P24385 whole entry partner): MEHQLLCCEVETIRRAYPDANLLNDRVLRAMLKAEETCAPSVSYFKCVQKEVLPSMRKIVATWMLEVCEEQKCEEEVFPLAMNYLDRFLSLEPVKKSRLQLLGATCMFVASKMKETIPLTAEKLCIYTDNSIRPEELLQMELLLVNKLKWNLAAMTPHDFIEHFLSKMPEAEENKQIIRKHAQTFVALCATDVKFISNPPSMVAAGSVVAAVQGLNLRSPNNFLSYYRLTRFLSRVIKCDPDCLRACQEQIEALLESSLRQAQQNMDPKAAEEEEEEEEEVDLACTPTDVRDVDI

inhibition at 10 µM (CDK16/Cyclin Y; independent experiment 1): 57.8%
inhibition at 10 µM (CDK16/Cyclin Y; independent experiment 2): 35.1%
IC50 (CDK16/Cyclin Y; average (± SEM where n=3)): 600 ± 200 nM
IC50 (CDK16/Cyclin Y; independent experiment 1): 162 nM
IC50 (CDK16/Cyclin Y; independent experiment 2): 870 nM
IC50 (CDK16/Cyclin Y; independent experiment 3): 721 nM
inhibition at 10 µM (CDK4/Cyclin D1; average of experiments): 93%
inhibition at 10 µM (CDK4/Cyclin D1; independent experiment 1): 97%
inhibition at 10 µM (CDK4/Cyclin D1; independent experiment 2): 88.9%
inhibition at 10 µM (CDK11A/Cyclin L2; average of experiments): 6.5%
inhibition at 10 µM (CDK11A/Cyclin L2; independent experiment 1): 7.3%
inhibition at 10 µM (CDK11A/Cyclin L2; independent experiment 2): 5.8%
inhibition at 10 µM (CDK7; average of experiments): 8.6%
inhibition at 10 µM (CDK7; independent experiment 1): -3.8%
inhibition at 10 µM (CDK7; independent experiment 2): 20.9%
inhibition at 10 µM (CDK6/Cyclin D1; average of experiments): 99.4%
inhibition at 10 µM (CDK6/Cyclin D1; independent experiment 1): 98.4%
inhibition at 10 µM (CDK6/Cyclin D1; independent experiment 2): 100%
inhibition at 10 µM (CDK18/Cyclin Y; average of experiments): 13.4%
inhibition at 10 µM (CDK18/Cyclin Y; independent experiment 1): 6.3%
inhibition at 10 µM (CDK18/Cyclin Y; independent experiment 2): 20.6%
inhibition at 10 µM (CDK2/Cyclin E1; average of experiments): 0.461%
inhibition at 10 µM (CDK2/Cyclin E1; independent experiment 1): 1.5%
inhibition at 10 µM (CDK2/Cyclin E1; independent experiment 2): -0.535%
inhibition at 10 µM (CDK9/Cyclin K; average of experiments): 38.1%
inhibition at 10 µM (CDK9/Cyclin K; independent experiment 1): 30%
inhibition at 10 µM (CDK9/Cyclin K; independent experiment 2): 46.2%
inhibition at 10 µM (CDK1/Cyclin E1; average of experiments): 8.6%
inhibition at 10 µM (CDK1/Cyclin E1; independent experiment 1): 17.2%
inhibition at 10 µM (CDK1/Cyclin E1; independent experiment 2): -0.0634%
inhibition at 10 µM (CDK13/Cyclin K; average of experiments): 3.3%
inhibition at 10 µM (CDK13/Cyclin K; independent experiment 1): 1.9%
inhibition at 10 µM (CDK13/Cyclin K; independent experiment 2): 4.7%
inhibition at 10 µM (CDK3/Cyclin E1; average of experiments): 2.3%
inhibition at 10 µM (CDK3/Cyclin E1; independent experiment 1): 3.5%
inhibition at 10 µM (CDK3/Cyclin E1; independent experiment 2): 1.1%
inhibition at 10 µM (CDK12/Cyclin K; average of experiments): -2.6%
inhibition at 10 µM (CDK12/Cyclin K; independent experiment 1): -5.3%
inhibition at 10 µM (CDK12/Cyclin K; independent experiment 2): 0.155%
inhibition at 10 µM (CDK19/Cyclin C; average of experiments): 9.4%
inhibition at 10 µM (CDK19/Cyclin C; independent experiment 1): 10.3%
inhibition at 10 µM (CDK19/Cyclin C; independent experiment 2): 8.5%
inhibition at 10 µM (CDK17/Cyclin Y; average of experiments): 41.1%
inhibition at 10 µM (CDK17/Cyclin Y; independent experiment 1): 49.5%
inhibition at 10 µM (CDK17/Cyclin Y; independent experiment 2): 32.7%
IC50 (CDK17/Cyclin Y; average (± SEM where n=3)): 500 ± 200 nM
IC50 (CDK17/Cyclin Y; independent experiment 1): 113 nM
IC50 (CDK17/Cyclin Y; independent experiment 2): 800 nM
IC50 (CDK17/Cyclin Y; independent experiment 3): 628 nM
inhibition at 10 µM (CDK8/Cyclin C; average of experiments): 7.6%
inhibition at 10 µM (CDK8/Cyclin C; independent experiment 1): 7.9%
inhibition at 10 µM (CDK8/Cyclin C; independent experiment 2): 7.4%
inhibition at 10 µM (CDK11B/Cyclin L2; average of experiments): 23.5%
inhibition at 10 µM (CDK11B/Cyclin L2; independent experiment 1): 6.3%
inhibition at 10 µM (CDK11B/Cyclin L2; independent experiment 2): 40.7%
inhibition at 10 µM (CDK20/Cyclin H; independent experiment 1): 10%
inhibition at 10 µM (CDK20/Cyclin H; independent experiment 2): 5.6%
inhibition at 10 µM (CDK5/CDK5R1; average of experiments): -10.2%
inhibition at 10 µM (CDK5/CDK5R1; independent experiment 1): 2.3%
inhibition at 10 µM (CDK5/CDK5R1; independent experiment 2): -22.7%
inhibition at 10 µM (CDK15/Cyclin Y; average of experiments): 8%
inhibition at 10 µM (CDK15/Cyclin Y; independent experiment 1): 2.9%
inhibition at 10 µM (CDK15/Cyclin Y; independent experiment 2): 13.1%
Compound: CN1CCN(c2ccc(Nc3ncc4cc5n(c4n3)C3(CCCCC3)CNC5=O)nc2)CC1 [Trilaciclib]
